Assay results reported in US11173195B2, “Immunomodulatory pharmaceutical compositions including a synthetic peptide and transforming growth factor beta” (Enzo Biochem, Inc., priority 2013, dated 2021).
Read-outs that look alike come from different tables or passages of the source.

How the values were obtained:
[1] = tested on: peripheral blood mononuclear cells (PBMCs) from AMD patients; conditions: for immunostimulatory activity on PBMCs: peptide 20 μg/ml
Protocol: (§1) Accordingly, peripheral blood mononuclear cells of AMD patients were tested to determine whether they would manifest the same type of responses to various synthetic peptides as blood cells from uveitis patients did in an earlier study. See deSmet et al. (2001) Investigative Ophthalmology & Visual Science 42(13):3233-38.
(§2) The cell preparation and assay procedures used in these experiments were essentially as described in DeSmet et al. 2001. In brief, mononuclear lymphocytes were separated on isolymph gradient (Gallard-Schlesinger, Carle Place, N.Y.) from heparinized blood shortly after the sample was obtained. Cells were resuspended in RMPI 1640 with HEPES (Gibco, Grand Island, N.Y.), supplemented with glutamine (2 mM), Penicillin (100 U/ml), streptomycin (100 μg/ml), and 10% commercial heat-inactivated human AB serum (Biocell Laboratories, Carson, Calif.). These cells were immediately placed in culture at a density of 5×10^5 cells/well in the presence of a test peptide at a concentration of 20 μg/ml (or no peptide control), in flat-bottomed, 96-well plates (Costar, Cambridge, Mass.). All assays were plated in triplicate. Peptides were tested simultaneously. For control of immune reactivity, purified protein derivative (PPD; Parke-Davis, Morris Plains, N.J.) and purified phytohemagglutinin (PHA; Murex Diagnostics, Dartford, UK) were also tested. For the last 12 hours before harvesting at day 5, each well was pulsed with [3H]thymidine (2 Ci/mmol, 0.5 μCi per 10 μl/well; New England Nuclear, Boston, Mass.).

[2] = tested on: blood cells from uveitis patients; conditions: previously found (Wildner and Thurau 1994; Thurau et al. 1997); cited from earlier work
[3] = tested on: PBMCs from control subjects without AMD
Protocol: as §1, §2

[4] = AMD patients with large drusen (late stage)
[5] = patients with wet AMD (advanced AMD with CNV), day 5
[6] = early stage AMD patients with small drusen

Row | Substance | immunostimulatory activity on PBMCs [1, 4] | immunostimulatory activity on PBMCs [1, 5] | immunostimulatory in uveitis patients [2] | immunostimulatory activity on PBMCs [1, 6] | also measured
1 | FLGEL TSSEV ATEV [PDS-Ag, reference compound] | varying levels of responses | elicit immunoreactive responses | immunostimulatory |  | 
2 | ALNED LSSWT AADT [Peptide B27PD, reference compound] | varying levels of responses | elicit immunoreactive responses | immunostimulatory |  | 
3 | LPLLA NNRER RGIAL [Peptide 29] | higher average reactivity than Peptide 23 |  |  | most reactive | 
4 | DTNLA SSTII KEGID [Peptide 31] | higher average reactivity than Peptide 23 |  |  | most reactive | 
5 | VTVDVTNNTEKTVKK [Peptide 23] |  |  |  |  | immunostimulatory activity on PBMCs ([3]; control subjects without AMD, peptide 20 μg/ml): little if any stimulation; frequency of induced immunostimulatory response ([1]; AMD patients with large drusen, FIG. 3, comparison of the three agents): more frequently induced an immunostimulatory response than PDS-Ag or B27PD
6 | GEPIPVTVDVTNNTEKTVKK |  |  |  |  | response from responder T-cells ([3]; healthy individuals): does not elicit a response; response from responder T-cells ([1]; AMD patients, FIG. 1): elicits a response
